Measured values reported in PubChem BioAssay AID2060508 (Molecular Pharmacology Branch, DTP, NCI, 2025).

Test system: 454973-116-R2-J3-PDC spheroids, viability, % test/control
Assay: Anticancer human tumor 454973-116-R2-J3-PDC patient-derived pancreatic carcinoma cell line growth inhibition [GQUAD]
Conditions: spheroids with HUVEC and MSC; for IC50: curve of first compound; for viability, T/C: stronger effect = lower value
Procedure, shortened: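 Tumor cells were grown as complex spheroids with HUVEC endothelial cells and mesenchymal stem cells as stroma. G-quadruplex stabilizers were combined with targeted agents over half-log dilutions from near the clinical Cmax, or from 10 microM.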

[1] = second compound 0.0316 µM, first compound 0.0316 µM
[2] = second compound 0.0316 µM, first compound 0.316 µM
[3] = second compound 0.1 µM, first compound 0.0316 µM
[4] = second compound 0.1 µM, first compound 0.316 µM
[5] = second compound 0.316 µM, first compound 0.0316 µM
[6] = second compound 0.316 µM, first compound 0.316 µM
[7] = second compound 1 µM, first compound 0.0316 µM
[8] = second compound 1 µM, first compound 0.316 µM
[9] = second compound 3.16 µM, first compound 0.0316 µM
[10] = second compound 3.16 µM, first compound 0.316 µM
[11] = second compound 10 µM, first compound 0.0316 µM
[12] = second compound 10 µM, first compound 0.316 µM
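Further: spheroids exposed to compounds for seven days.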
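Wherever viability, T/C is given: 100% = DMSO vehicle control viability.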

## Cc1[nH]c2ccccc2c1CCNCc1ccc(/C=C/C(=O)NO)cc1 + Cc1cnc(CNC(=O)c2c(=O)c3ccc(N4CCCN(C)CC4)nc3n3c2sc2ccccc23)cn1
Second compound 0.0316 µM
  IC50: 59.6 nM
Second compound 0.1 µM
  IC50: 56.9 nM
Second compound 0.316 µM
  IC50: 50.5 nM
Second compound 1 µM
  IC50: 41.6 nM
Second compound 3.16 µM
  IC50: 34.6 nM
Second compound 10 µM
  IC50: < 0.999 nM
Second compound 0.0316 µM, first compound 0.000999 µM
  viability, T/C: 96%
Second compound 0.0316 µM, first compound 0.00316 µM
  viability, T/C: 97.9%
Second compound 0.0316 µM, first compound 0.00999 µM
  viability, T/C: 106%
[1]
  viability, T/C: 76.2%
Second compound 0.0316 µM, first compound 0.0999 µM
  viability, T/C: 27.9%
[2]
  viability, T/C: 3.29%
Second compound 0.1 µM, first compound 0.000999 µM
  viability, T/C: 84.4%
Second compound 0.1 µM, first compound 0.00316 µM
  viability, T/C: 74.9%
Second compound 0.1 µM, first compound 0.00999 µM
  viability, T/C: 79.2%
[3]
  viability, T/C: 69.8%
Second compound 0.1 µM, first compound 0.0999 µM
  viability, T/C: 31.1%
[4]
  viability, T/C: 4.46%
Second compound 0.316 µM, first compound 0.000999 µM
  viability, T/C: 69.7%
Second compound 0.316 µM, first compound 0.00316 µM
  viability, T/C: 71.8%
Second compound 0.316 µM, first compound 0.00999 µM
  viability, T/C: 74.2%
[5]
  viability, T/C: 67.1%
Second compound 0.316 µM, first compound 0.0999 µM
  viability, T/C: 24.9%
[6]
  viability, T/C: 2.72%
Second compound 1 µM, first compound 0.000999 µM
  viability, T/C: 61.3%
Second compound 1 µM, first compound 0.00316 µM
  viability, T/C: 63.2%
Second compound 1 µM, first compound 0.00999 µM
  viability, T/C: 61.5%
[7]
  viability, T/C: 57.1%
Second compound 1 µM, first compound 0.0999 µM
  viability, T/C: 27.5%
[8]
  viability, T/C: 0.21%
Second compound 3.16 µM, first compound 0.000999 µM
  viability, T/C: 56.4%
Second compound 3.16 µM, first compound 0.00316 µM
  viability, T/C: 64.3%
Second compound 3.16 µM, first compound 0.00999 µM
  viability, T/C: 59.1%
[9]
  viability, T/C: 52.4%
Second compound 3.16 µM, first compound 0.0999 µM
  viability, T/C: 21%
[10]
  viability, T/C: 0.16%
Second compound 10 µM, first compound 0.000999 µM
  viability, T/C: 0.26%
Second compound 10 µM, first compound 0.00316 µM
  viability, T/C: 19.2%
Second compound 10 µM, first compound 0.00999 µM
  viability, T/C: 43.2%
[11]
  viability, T/C: 31.6%
Second compound 10 µM, first compound 0.0999 µM
  viability, T/C: 0.77%
[12]
  viability, T/C: 0.47%

## C#Cc1c(F)ccc2cc(O)cc(-c3ncc4c(N5CC6CCC(C5)N6)nc(OCC56CCCN5CC(F)C6)nc4c3F)c12 (centres undefined) + Cc1cnc(CNC(=O)c2c(=O)c3ccc(N4CCCN(C)CC4)nc3n3c2sc2ccccc23)cn1
Second compound 0.0316 µM
  IC50: < 31.6 nM
Second compound 0.1 µM
  IC50: < 31.6 nM
Second compound 0.316 µM
  IC50: < 31.6 nM
Second compound 1 µM
  IC50: < 31.6 nM
Second compound 3.16 µM
  IC50: < 31.6 nM
Second compound 10 µM
  IC50: < 31.6 nM
[1]
  viability, T/C: 45.9%
Second compound 0.0316 µM, first compound 0.1 µM
  viability, T/C: 40.8%
[2]
  viability, T/C: 28.3%
Second compound 0.0316 µM, first compound 1 µM
  viability, T/C: 23.2%
Second compound 0.0316 µM, first compound 3.16 µM
  viability, T/C: 20.3%
Second compound 0.0316 µM, first compound 10 µM
  viability, T/C: 17.8%
[3]
  viability, T/C: 41.9%
Second compound 0.1 µM, first compound 0.1 µM
  viability, T/C: 33.3%
[4]
  viability, T/C: 24%
Second compound 0.1 µM, first compound 1 µM
  viability, T/C: 20.1%
Second compound 0.1 µM, first compound 3.16 µM
  viability, T/C: 17.1%
Second compound 0.1 µM, first compound 10 µM
  viability, T/C: 16.1%
[5]
  viability, T/C: 41.7%
Second compound 0.316 µM, first compound 0.1 µM
  viability, T/C: 24.4%
[6]
  viability, T/C: 17.4%
Second compound 0.316 µM, first compound 1 µM
  viability, T/C: 17.1%
Second compound 0.316 µM, first compound 3.16 µM
  viability, T/C: 14.3%
Second compound 0.316 µM, first compound 10 µM
  viability, T/C: 11.4%
[7]
  viability, T/C: 36.6%
Second compound 1 µM, first compound 0.1 µM
  viability, T/C: 24.2%
[8]
  viability, T/C: 19%
Second compound 1 µM, first compound 1 µM
  viability, T/C: 16.5%
Second compound 1 µM, first compound 3.16 µM
  viability, T/C: 13.2%
Second compound 1 µM, first compound 10 µM
  viability, T/C: 10.7%
[9]
  viability, T/C: 36.5%
Second compound 3.16 µM, first compound 0.1 µM
  viability, T/C: 22.6%
[10]
  viability, T/C: 19.3%
Second compound 3.16 µM, first compound 1 µM
  viability, T/C: 12.6%
Second compound 3.16 µM, first compound 3.16 µM
  viability, T/C: 9.16%
Second compound 3.16 µM, first compound 10 µM
  viability, T/C: 4.35%
[11]
  viability, T/C: 0.16%
Second compound 10 µM, first compound 0.1 µM
  viability, T/C: 0.43%
[12]
  viability, T/C: 0.47%
Second compound 10 µM, first compound 1 µM
  viability, T/C: 0.12%
Second compound 10 µM, first compound 3.16 µM
  viability, T/C: 0.27%
Second compound 10 µM, first compound 10 µM
  viability, T/C: 0.18%
